Source: US20050033056A1, “Hydroxylated indole derivatives and uses thereof” (priority 2001, published 2005)
pKi: −log10 of the molar value. Entries after “also recorded” stand apart in the source; their conditions may differ. Like-named read-outs stand apart in the source and are kept apart here.

How the values were obtained:
[1] = target: T1, cDNA-expressed recombinant CYP2C19 (Homo sapiens, UniProt P33261); assay: Apparent Ki with recombinant CYP2C19 (S-mephenyloin 4'-hydroxylation; Dixon plots, SNLR); assay type: in vitro ADME; conditions: for pKi: recombinant CYP2C19
T1 construct: purchased Gentest Corp. (Woburn, Mass.); host or cells: insect cells (microsomal preparation)
T1 sequence (P33261 whole entry): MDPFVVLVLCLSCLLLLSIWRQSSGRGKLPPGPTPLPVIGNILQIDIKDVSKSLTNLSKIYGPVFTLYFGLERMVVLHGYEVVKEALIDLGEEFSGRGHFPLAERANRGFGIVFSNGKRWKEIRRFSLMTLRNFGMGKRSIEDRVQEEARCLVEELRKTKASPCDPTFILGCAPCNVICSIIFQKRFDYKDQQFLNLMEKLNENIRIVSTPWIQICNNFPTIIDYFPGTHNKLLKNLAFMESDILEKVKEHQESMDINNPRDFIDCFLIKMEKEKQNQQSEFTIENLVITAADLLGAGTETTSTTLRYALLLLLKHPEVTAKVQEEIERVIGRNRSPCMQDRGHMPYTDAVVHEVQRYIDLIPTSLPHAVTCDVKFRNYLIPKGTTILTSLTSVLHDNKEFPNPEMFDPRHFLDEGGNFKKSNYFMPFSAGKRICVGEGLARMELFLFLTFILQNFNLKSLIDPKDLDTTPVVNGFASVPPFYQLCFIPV
Experimental: If inhibition was detected, the inhibitory potency was determined using recombinant CYPs. Compound 1 appeared to inhibit the activities of CYP2D6 and CYP2C19. Therefore, three concentrations of S-mephenyloin (30, 80, and 200 μM) and bufuralol (5, 10, and 40 μM), and a range of concentrations (0-200 μM) of Compound 1 were used for the construction of Dixon plots and simultaneously nonlinear regression (SNLR) analyses were performed. The incubation conditions and sample preparations were the same as previously described.
4. CYP2C19-mediated S-mephenyloin 4′-hydroxylation (Goldstein et al., Biochemistry 33:1743-1752, 1994): The LC/MS/MS system, including the separation column, described for the bufuralol hydroxylation was used. The isocratic mobile phase, 100 mM formic acid-acetonitrile/75:25, was run at 0.25 ml/minutes. The operation of the LC/MS/MS was controlled by MacChrom (Version 1.6). The MS/MS was operated at positive ESI with a 5.5 kV ionization potential and 100° C. ion source temperature. MRM was applied for the quantification. The MRM transition ions were m/z 235→150 for 4′-hydroxymephenytoin, and m/z […] for the IS R-propranolol.
Data were acquired and analyzed by ChemStation (Version 6.03, Hewlett Packard, Waldbronn, Germany) for 6-, 7-, and 10-hydroxywarfarin and 6-hydroxychlorzoxazone, and MacQuan (Version 1.6, PE Biosystem, Foster City, Calif.) for 1′-hydroxybufuralol and 4′-hydroxymephenytoin. Quantification was based on peak area ratios of metabolites over the respective IS against the respective concentration of the metabolites. The standard curves were generated by linear regression with (6-, 7-, and 10-hydroxywarfarin, 1′-hydroxybufuralol, and 4′-hydroxymephenytoin) or without (6-hydroxychlorzoxazone) a weighting factor (1/x^2). The metabolic rates were determined using Excel (Microsoft Office 97, Microsoft Corporation, Redmond, Wash.) or SigmaPlot (Version 6.00, SPSS Inc. Chicago, Ill.). […]

CYP3A4 = CYP3A4 (Homo sapiens, UniProt P08684); assay: Compound 1 metabolism / metabolite formation by recombinant CYP3A4; assay type: in vitro ADME; set-up: purchased Gentest Corp. (Woburn, Mass.); host or cells: insect cells (microsomal preparation)
CYP3A4, sequence (P08684 whole entry): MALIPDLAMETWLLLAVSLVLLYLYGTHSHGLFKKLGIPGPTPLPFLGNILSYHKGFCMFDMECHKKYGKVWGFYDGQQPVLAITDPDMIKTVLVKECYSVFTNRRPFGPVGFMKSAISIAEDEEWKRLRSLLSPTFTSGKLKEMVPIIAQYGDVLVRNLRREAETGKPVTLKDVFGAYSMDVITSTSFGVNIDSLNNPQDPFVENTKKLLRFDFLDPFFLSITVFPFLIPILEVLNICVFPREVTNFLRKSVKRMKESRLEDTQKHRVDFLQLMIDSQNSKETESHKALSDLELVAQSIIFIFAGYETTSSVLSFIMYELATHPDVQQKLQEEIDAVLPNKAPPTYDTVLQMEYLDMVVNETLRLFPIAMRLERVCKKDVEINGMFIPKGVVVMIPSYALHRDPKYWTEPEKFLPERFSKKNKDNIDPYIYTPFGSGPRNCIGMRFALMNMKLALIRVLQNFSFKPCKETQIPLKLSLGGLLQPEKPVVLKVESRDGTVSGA
Experimental: The metabolism of Compound 1 was determined by the disappearance of Compound 1 or the appearance of Compound 1 metabolites in reaction mixtures as compared to respective controls. Compound 1 was incubated in the reconstituted in vitro reaction systems containing pooled human liver S9 fractions, microsomal preparations, or recombinant hepatic CYP forms, including CYP1A2, CYP2C9, CYP2C19, CYP2D6, CYP2E1, and CYP3A4. The reaction mixture (total volume of 250 μL) contained 0.5 mg of liver microsomal protein, 50 or 25 pmol of recombinant CYP, and Compound 1 (50-80 μM) in 50 mM Tris buffer containing 15 mM MgCl2 (pH 7.4). After incubating at 37° C. with gentle shaking for 1 minute, the reaction was initiated by adding 25 μL of NADPH solution (20 mg/mL), and was carried out for 1 hour. The reaction was terminated by quickly cooling the test tube on ice, followed by the addition of an equal volume of 100% methanol. The samples were centrifuged in a desktop centrifuge at 14,000 rpm for 5 minutes, and the supernatants were filtered through syringe filters (13 mm, 0.45 μm). The filtrates were subjected to analysis using LC/MS (ion trap) or LC/MS/MS.
1. LC/MS (LCQ ion trap mass spectrometer, Finnigan Corp., San Jose, Calif.): Hewlett Packard 1100 HPLC system (Waldbronn, Germany) consisted of a binary pump, an autosampler, a column compartment unit, and an online variable wavelength UV detector (VWD). The detector was monitored at 270 nm, which is the UVmax of Compound 1 predetermined by scanning between 225-400 nm using a photodiode array detector (PDA). The metabolites were separated on a Hewlett Packard Eclipse C18 column (150×2.1 mm). The mobile phases were 10 nmM ammonium acetate at pH 4.8 (A) and acetonitrile (B). The gradient (B) was 10% (0-6 minutes), 22% (12-22 minutes), 90% (25-30 minutes), and 10% (31 minutes and after). The flow rate was 0.25 mL/minute. Software Navigator (Version 1.2, Finnigan Corp.) was used to control the HPLC and MS and to acquire the data. […]

Question: Which results are given for `CNC(=O)Cc1ccc2ccn(C3CCN(CCc4ccccc4F)CC3)c2c1` [Compound 1, N-methyl-[1-[1-(2-fluorophenethyl)piperidine-4-yl]-1H-indol-6-yl] acetamide]?
Answer: type of inhibition of CYP2C19 ([1]; Dixon plots and SNLR analyses): competitive inhibitor; also recorded: primarily, if not fully, competitive; pKi ([1]; Dixon plots, S-mephenyloin 30, 80, 200 μM, read-out: apparent Ki, CYP2C19, estimated by Dixon plots): 4.35 to 4.60; pKi ([1]; SNLR, competitive inhibition model, read-out: apparent Ki, CYP2C19 inhibition, determined by SNLR): 4.32; metabolism of Compound 1 by CYP3A4 (in words) (CYP3A4; approximately 50 μM of Compound 1): metabolized; Rel. Amount (%) (CYP3A4; recombinant CYP3A4, estimated by UV absorbance at 270 nm, metabolite formed or Compound 1 left after 1 hour with NADPH): 23%
